Reference: PubChem BioAssay (NCI)
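Cultured in 96-well plates, cells were exposed to test compound for 48 hours across five concentrations. Here, GI50 denotes the concentration required for 50% inhibition of growth. TGI is the concentration that stops growth completely.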

Experiments:
Experiment in all cases: NCI tumour cell line growth inhibition, 48 h
SF-539 CNS = system: SF-539 CNS
A498 renal = system: A498 renal
UACC-257 melanoma = system: UACC-257 melanoma
COLO 205 colon = system: COLO 205 colon
K-562 leukemia = system: K-562 leukemia
SNB-19 CNS = system: SNB-19 CNS
TK-10 renal = system: TK-10 renal
ACHN renal = system: ACHN renal
SK-MEL-2 melanoma = system: SK-MEL-2 melanoma
RXF 393 renal = system: RXF 393 renal

| SMILES | TGI (SF-539 CNS) [µM] | TGI (A498 renal) [µM] | TGI (UACC-257 melanoma) [µM] | TGI (COLO 205 colon) [µM] | TGI (K-562 leukemia) [µM] | TGI (SNB-19 CNS) [µM] | TGI (TK-10 renal) [µM] | TGI (ACHN renal) [µM] | TGI (SK-MEL-2 melanoma) [µM] | TGI (RXF 393 renal) [µM] | GI50 (SF-539 CNS) [µM] | GI50 (RXF 393 renal) [µM] | GI50 (A498 renal) [µM] | GI50 (UACC-257 melanoma) [µM] | GI50 (COLO 205 colon) [µM] | GI50 (K-562 leukemia) [µM] | GI50 (SNB-19 CNS) [µM] | GI50 (TK-10 renal) [µM] | GI50 (SK-MEL-2 melanoma) [µM] | GI50 (ACHN renal) [µM] |
| --- | --- | --- | --- | --- | --- | --- | --- | --- | --- | --- | --- | --- | --- | --- | --- | --- | --- | --- | --- | --- |
| O=C(/C=C/c1ccccc1)CCC1C(=O)NC(=O)NC1=O | > 100 | > 100 | > 100 | > 100 | > 100 | > 100 | > 100 | > 100 | > 100 |  |  |  |  |  |  |  |  |  |  |  |
| CNC(=O)CN(CC(N)=O)C(=O)NC | > 100 | > 100 |  | > 100 | > 100 | > 100 | > 100 | > 100 | > 100 | > 100 |  |  |  |  |  |  |  |  |  |  |
| CC(=O)Nc1ccc(/C=C/C(=O)c2sc(C(N)=S)nc2C)cc1 | > 100 | > 100 | > 100 | > 100 | > 100 |  | > 100 |  | > 100 | > 100 |  |  |  |  |  |  |  |  |  |  |
| NC(=O)Oc1cc(OC(N)=O)cc(N(CCCl)CCCl)c1 | 5.96 | 29.3 | 53.6 | 38.6 | > 100 | > 100 | 55.9 |  | 47.8 | 5.4 | 1.65 | 1.98 | 12.4 | 12.1 | 15.2 | 10 | 10.6 | 19.3 | 15.6 |  |
| O=S1c2ccc(Cl)cc2CC(SSC2Cc3cc(Cl)ccc3S(=O)c3ccccc32)c2ccccc21 (stereo not drawn) | > 100 |  | > 100 | > 100 | > 100 | > 100 | > 100 | > 100 | > 100 | > 100 |  |  |  |  |  |  |  |  |  |  |
| Cc1ccc(S(=O)(=O)N/N=C(\C(=O)Nc2cccc([N+](=O)[O-])c2)c2nc3ccc([N+](=O)[O-])cc3[nH]c2=O)cc1 | > 100 | > 100 | > 100 | > 100 | > 100 | > 100 |  | > 100 | > 100 | > 100 |  |  |  |  |  |  |  |  |  |  |
| O=C(NCC#CCO)C(F)(F)F | > 100 | > 100 | > 100 |  |  | > 100 | > 100 | > 100 | > 100 | > 100 |  |  |  |  |  |  |  |  |  |  |
| O=C1/C(=C/c2ccccc2)CCCC/C1=C\c1ccccc1 | > 100 | > 100 | > 100 | > 100 |  | > 100 | > 100 | > 100 | > 100 | 59.5 |  |  |  |  |  |  |  |  |  |  |
| CC(C)=CCC/C(C)=C/CC/C(=C/COP(=O)(OCc1ccc([N+](=O)[O-])o1)N(C)CCCCCl)C(C)(C)C (stereo not drawn) | 10.6 | 2.16 | 27.6 | 53.1 | > 100 | 33.6 | 22.2 |  | 11.4 | 26.5 | 4.25 | 7.84 | 0.125 | 10.8 | 15.9 | 6.22 | 15.8 | 1.72 | 2.73 |  |
| COc1cc(-c2nc3ccccc3s2)ccc1OCc1nc2n(n1)S(=O)(=O)c1ccccc1N2C | > 100 | > 100 | > 100 | > 100 | > 100 | > 100 | > 100 | > 100 | > 100 |  | > 100 |  | > 100 | > 100 | > 100 | 97.4 | > 100 | > 100 | > 100 | > 100 |
| Nc1ccc(C(=O)NN2C(=O)C(Cl)C2c2ccccc2O)cc1 (stereo not drawn) | > 100 |  | > 100 | > 100 | > 100 | > 100 | > 100 | > 100 | > 100 |  |  |  |  |  |  |  |  |  |  |  |
| CCCCCCCCCCCC(=O)OCC1OC(n2cc(F)c(=O)[nH]c2=O)C(N)C(O)C1O (stereo not drawn) | > 100 | > 100 | > 100 | > 100 | > 100 | > 100 |  | > 100 | > 100 | > 100 |  |  |  |  |  |  |  |  |  |  |
| COC(=O)C1=CC2OC1(C)C1(CC1)C2=O (stereo not drawn) | 32.1 |  | 31 | 33.5 | 41.9 | > 100 |  | 34.4 |  | 28.9 |  |  |  |  |  |  |  |  |  |  |
| CN(CCO)c1nc2c(c(=O)[nH]1)CNCC2 | > 100 |  | > 100 | > 100 | > 100 | > 100 | > 100 | > 100 | > 100 | > 100 |  |  |  |  |  |  |  |  |  |  |
| Cn1c2cccc3nnc4cccc(c4c32)n1C | > 100 | > 100 | > 100 | > 100 | > 100 | > 100 |  | > 100 | > 100 | > 100 |  |  |  |  |  |  |  |  |  |  |
| COC(=O)/C(=C/CC(N=C(c1ccccc1)c1ccccc1)C(=O)OC)N=C(c1ccccc1)c1ccccc1 (stereo not drawn) |  |  | > 100 | > 100 | > 100 | > 100 | > 100 | > 100 | > 100 | > 100 |  |  |  |  |  |  |  |  |  |  |
| COc1ccccc1NC(=O)C1=C(C)NC(C)=C(C(=O)Nc2ccccc2OC)C1c1ccccc1OC | > 100 | > 100 | > 100 | > 100 | > 100 | > 100 | > 100 | > 100 | > 100 |  |  |  |  |  |  |  |  |  |  |  |
| Cc1ccc(C2=NO[C@@H]3C(=O)N(c4ccc(Cc5ccc(N6C(=O)[C@H]7C(c8ccc(C)cc8)=NO[C@H]7C6=O)cc5)cc4)C(=O)[C@H]23)cc1 | > 100 | > 100 | > 100 | > 100 | > 100 |  | > 100 | > 100 | > 100 | > 100 |  |  |  |  |  |  |  |  |  |  |
| CCOC(=O)C1C(c2ccc([N+](=O)[O-])cc2)NC(c2ccc([N+](=O)[O-])cc2)C(C(=O)OC)S1(=O)=O (stereo not drawn) |  |  | > 100 | > 100 | > 100 | > 100 | > 100 | > 100 | > 100 | > 100 |  |  |  |  |  |  |  |  |  |  |
| CCN(CC)CCOc1cc2c(C(=O)OC)c(C)oc2cc1C(C)=O |  | > 100 | 31.7 | 26.6 | 29.2 | 32.2 | 31.4 | 18.3 | > 100 | 41 |  | 17.9 | 53 | 13 | 8.27 | 4.7 | 15.8 | 16.8 | 33.3 | 5.65 |
| Cc1cc(C)n(-c2c(O)ccc(O)c2-n2nc(C)cc2C)n1 | > 100 | > 100 |  | > 100 | > 100 | > 100 | > 100 | > 100 | > 100 | > 100 |  |  |  |  |  |  |  |  |  |  |
